Test results as given in patent US9180214B1, “Gonadotropin-releasing hormone receptor-targeting peptides and their use to treat and diagnose cancer” (STC.UNM, priority 2011, dated 2015).
One block for each molecule: values may come before it. Positions of bridges follow the written chain, without caps; N, C: chain ends. Non-standard residues stand in square brackets, D forms with d. Residues, ends and D or L forms follow the SMILES beside them. Chains are numbered I, II in the order given. *: point of attachment. DOTA = O=C(O)CN1CCN(CC(=O)O)CCN(CC(=O)*)CCN(CC(=O)O)CC1; pGlu = O=C1CC[C@@H](C(=O)O)N1; Ahx = NCCCCCC(=O)O

Assays:
[1] = target: T1, human GnRH receptor membrane preparations (Homo sapiens, UniProt P30968); experiment: In vitro competitive GnRH receptor binding assay with ^125I-[D-Trp^6]-LH-RH
T1 construct: purchased Millipore, Inc (Billerica, Mass.)
T1 sequence (P30968 1-328): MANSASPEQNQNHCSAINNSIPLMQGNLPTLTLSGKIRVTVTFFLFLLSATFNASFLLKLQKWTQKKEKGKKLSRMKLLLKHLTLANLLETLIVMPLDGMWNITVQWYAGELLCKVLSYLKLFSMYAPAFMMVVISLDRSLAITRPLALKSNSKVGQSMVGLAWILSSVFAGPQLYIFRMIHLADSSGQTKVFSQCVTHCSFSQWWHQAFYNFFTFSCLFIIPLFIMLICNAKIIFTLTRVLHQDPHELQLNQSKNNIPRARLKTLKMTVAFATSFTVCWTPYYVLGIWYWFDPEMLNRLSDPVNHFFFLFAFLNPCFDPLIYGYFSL
Description: The GnRH receptor binding affinities (IC50 values) of DOTA-Ahx-(D-Lys^6-GnRH1), DOTA-Ahx-(D-Lys^6-GnRH2) and DOTA-Ahx-(L-Lys^6-GnRH3) were determined by in vitro competitive binding assay according to the published procedure^32 with modifications. Briefly, 5 μL of Millipore ChemiScreen™ human GnRH membrane preparations were incubated at 25° C. for 3 h with approximately 30,000 counts per minute (cpm) of ^125I-[D-Trp^6]-LH-RH in the presence of 10^−11 to 10^−5 M of each peptide in 95 μL of binding medium {50 mM N-(2-hydroxyethyl)-piperazine-N′-(2-ethanesulfonic acid), 5 mM MgCl2, 1 mM CaCl2, pH 7.4, 0.2% bovine serum albumin (BSA)}. After the incubation, 800 μL of ice-cold washing buffer (50 mM N-(2-hydroxyethyl)-piperazine-N′-(2-ethanesulfonic acid), 500 mM NaCl, pH 7.4, 0.1% BSA) was added to each mixture. Each resulting mixture was filtered through a GF/C filter (Whatman, Clifton, N.J.) pre-soaked in 1% polyethylenimine. Each filter was rinsed with 1 mL of ice-cold washing buffer for three times. The activities on the filters were measured in a Wallac 1480 automated gamma counter (PerkinElmer, Waltham, Mass.). The IC50 value of each peptide was calculated using Prism software (GraphPad Software, La Jolla, Calif.).

[2] = In vitro mouse serum stability by RP-HPLC; type: in vitro ADME; conditions: 37° C., 2 h
Description: In vitro serum stability of ^111In-DOTA-Ahx-(D-Lys^6-GnRH1) was determined by incubation in mouse serum at 37° C. for 2 h and monitored for degradation by RP-HPLC. Briefly, 100 μL of HPLC-purified ^111In-DOTA-Ahx-(D-Lys^6-GnRH1) solution (˜3.7 MBq) was added into 100 μL of mouse serum (Sigma-Aldrich Corp, St. Louis, Mo.) and incubated at 37° C. for 2 h. After the incubation, 200 μL of a mixture of ethanol and acetonitrile (V:V=1:1) was added to precipitate the serum. The resulting mixture was centrifuged at 10,000 g for 5 min to collect the supernatant. The supernatant was purged with N2 gas for 30 min to remove the ethanol and acetonitrile. The resulting sample was mixed with 500 μL of water and injected into RP-HPLC for analysis using the gradient described above.

[3] = Urinary metabolites by RP-HPLC in DU145 xenografted nude mouse; type: in vivo; conditions: 2 h post-injection
Description: One hundred microliters of HPLC purified ^111In-DOTA-Ahx-(D-Lys^6-GnRH1) (2.4 MBq) was injected into a DU145 human prostate cancer-xenografted nude mouse through the tail vein. At 2 h post-injection, the mouse was sacrificed and the urine was collected for metabolites analysis. The urine was centrifuged at 16,000 g for 5 min prior to the HPLC analysis. The radioactive metabolites in the urine were analyzed by injecting aliquots of the urine into HPLC. A 20-minute gradient of 15-25% acetonitrile/20 mM HCl was used for the urine analysis.

[4] = tested on: MDA-MB-231 human breast cancer-xenografted nude mice; experiment: Biodistribution in MDA-MB-231 human breast cancer-xenografted nude mice; type: in vivo, mouse; conditions: MDA-MB-231 xenograft
Description: All the animal studies were conducted in compliance with Institutional Animal Care and Use Committee approval. The pharmacokinetics of ^111In-DOTA-Ahx-(D-Lys^6-GnRH1) was determined in MDA-MB-231 human breast cancer-xenografted female athymic nude mice (Harlan, Indianapolis, Ind.). The nude mice were subcutaneously inoculated with 1×10^7 MDA-MB-231 cells on the right flank of each mouse to generate MDA-MB-231 xenografted tumors. The tumor weights reached approximately 0.3 g at 18 days post cell inoculation. Each tumor-bearing mouse was injected with 0.037 MBq of ^111In-DOTA-Ahx-(D-Lys^6-GnRH1) via the tail vein. Groups of 5 mice were sacrificed at 0.5, 2, 4 and 24 h post-injection, and tumors and organs of interest were harvested, weighed and counted. Blood values were taken as 6.5% of the whole-body weight.

[5] = tested on: DU145 human prostate cancer-xenografted nude mice; experiment: Biodistribution in DU145 human prostate cancer-xenografted nude mice; type: in vivo, mouse; conditions: DU145 xenograft
Description: All the animal studies were conducted in compliance with Institutional Animal Care and Use Committee approval. The pharmacokinetics of ^111In-DOTA-Ahx-(D-Lys^6-GnRH1) was determined in DU145 human prostate cancer-xenografted male athymic nude mice (Harlan, Indianapolis, Ind.). The nude mice were subcutaneously inoculated with 1×10^7 DU145 cells on the right flank of each mouse to generate DU145 xenografted tumors. The tumor weights reached approximately 0.3 g at 18 days post cell inoculation. Each tumor-bearing mouse was injected with 0.037 MBq of 111In-DOTA-Ahx-(D-Lys6-GnRH1) via the tail vein. Groups of 5 mice were sacrificed at 0.5, 2, 4 and 24 h post-injection, and tumors and organs of interest were harvested, weighed and counted. Blood values were taken as 6.5% of the whole-body weight. To determine the tumor imaging property of ^111In-DOTA-Ahx-(D-Lys^6-GnRH1), approximately 33.3 MBq of ^111In-DOTA-Ahx-(D-Lys^6-GnRH1) was injected into a DU145 human prostate cancer-xenografted nude mouse (18 days post the cell inoculation) via the tail vein. The mouse was sacrificed for small animal SPECT/CT (Nano-SPECT/CT®, Bioscan) imaging at 0.5 h post-injection. The CT imaging was immediately followed by the whole-body SPECT imaging. The SPECT scans of 24 projections were acquired. Reconstructed SPECT and CT data were visualized and co-registered using InVivoScope (Bioscan, Washington D.C.).

[6] = target: T2, human GnRH receptor (human, UniProt P30968 1-328); experiment: ratio of IC50 values from the competitive binding assay
T2 construct: whole, on cells; also called gonadotropin-releasing hormone (GnRH) receptor; ChemiScreen Human GnRH receptor membrane preparations
T2 sequence (looked up): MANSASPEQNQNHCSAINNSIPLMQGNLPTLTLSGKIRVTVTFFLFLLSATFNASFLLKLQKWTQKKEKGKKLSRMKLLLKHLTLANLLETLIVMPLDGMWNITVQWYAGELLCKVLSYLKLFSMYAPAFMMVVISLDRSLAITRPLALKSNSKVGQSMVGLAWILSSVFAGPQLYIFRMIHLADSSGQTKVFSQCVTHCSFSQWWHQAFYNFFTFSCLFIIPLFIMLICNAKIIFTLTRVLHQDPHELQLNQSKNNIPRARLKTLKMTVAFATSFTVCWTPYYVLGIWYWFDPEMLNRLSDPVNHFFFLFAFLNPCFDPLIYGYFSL

[7] = target: T2, human GnRH receptor; experiment: competitive binding against 125I-[D-Trp6]-LH-RH on human GnRH receptor membrane preparations, filter assay
Description: The GnRH receptor binding affinities (IC$50$ values) of DOTA-Ahx-(D-Lys^6-GnRH1), DOTA-Ahx-(D-Lys^6-GnRH2) and DOTA-Ahx-(L-Lys^6-GnRH3) were determined by in vitro competitive binding assay according to the published procedure[32] with modifications. […] After the incubation, 800 μL of ice-cold washing buffer (50 mM N-(2-hydroxyethyl)-piperazine-N'-(2-ethanesulfonic acid), 500 mM NaCl, pH 7.4, 0.1% BSA) was added to each mixture. Each resulting mixture was filtered through a GF/C filter (Whatman, Clifton, N.J.) pre-soaked in 1% polyethylenimine. Each filter was rinsed with 1 mL of ice-cold washing buffer for three times. The activities on the filters were measured in a Wallac 1480 automated gamma counter (PerkinElmer, Waltham, Mass.). The IC$50$ value of each peptide was calculated using Prism software (GraphPad Software, La Jolla, Calif.).

GnRH receptor binding affinity (in words) [1]: low nanomolar
Molecule: CC(C)C[C@H](NC(=O)[C@@H](CCCCNC(=O)CCCCCNC(=O)CN1CCN(CC(=O)O)CCN(CC(=O)O)CCN(CC(=O)O)CC1)NC(=O)[C@H](Cc1ccc(O)cc1)NC(=O)[C@H](CO)NC(=O)[C@H](Cc1c[nH]c2ccccc12)NC(=O)[C@H](Cc1c[nH]cn1)NC(=O)[C@@H]1CCC(=O)N1)C(=O)N[C@@H](CCCNC(=N)N)C(=O)N1CCC[C@H]1C(=O)NCC(N)=O [DOTA-Ahx-(D-Lys^6-GnRH1)]

decrease of GnRH receptor binding affinity versus DOTA-Ahx-(D-Lys^6-GnRH1) [1]: 293 fold
Molecule: CC(C)C[C@H](NC(=O)[C@@H](CCCCNC(=O)[C@H](Cc1ccc(O)cc1)NC(=O)[C@H](CO)NC(=O)[C@H](Cc1c[nH]c2ccccc12)NC(=O)[C@H](Cc1c[nH]cn1)NC(=O)[C@@H]1CCC(=O)N1)NC(=O)CCCCCNC(=O)CN1CCN(CC(=O)O)CCN(CC(=O)O)CCN(CC(=O)O)CC1)C(=O)N[C@@H](CCCNC(=N)N)C(=O)N1CCC[C@H]1C(=O)NCC(N)=O [DOTA-Ahx-(D-Lys^6-GnRH2)] (I: {DOTA-Ahx}-[dK]LRPG-NH2 / II: [pGlu]HWSY; amide I:1-II:C)

decrease of GnRH receptor binding affinity versus DOTA-Ahx-(D-Lys^6-GnRH1) [1]: 119 fold
Molecule: CC(C)C[C@H](NC(=O)[C@H](CCCCNC(=O)CCCCCNC(=O)CN1CCN(CC(=O)O)CCN(CC(=O)O)CCN(CC(=O)O)CC1)NC(=O)[C@H](Cc1ccc(O)cc1)NC(=O)[C@H](CO)NC(=O)[C@H](Cc1c[nH]c2ccccc12)NC(=O)[C@H](Cc1c[nH]cn1)NC(=O)[C@@H]1CCC(=O)N1)C(=O)N[C@@H](CCCNC(=N)N)C(=O)N1CCC[C@H]1C(=O)NCC(N)=O [DOTA-Ahx-(L-Lys^6-GnRH3)]

stability in mouse serum [2]: stable | metabolized into two compounds with higher polarity (urine) [3]: 90.2% | remained intact in urine [3]: 9.8% | Kidneys, percent injected dose/gram ([4]; 0.5 h post-injection): 15.39±4.59 % ID/g | Tumor, percent injected dose/gram ([4]; 0.5 h post-injection): 1.76±0.58 % ID/g | Blood, percent injected dose/gram ([4]; 2 h post-injection): 0.20±0.03 % ID/g | Kidneys, percent injected dose/gram ([4]; 2 h post-injection): 8.88±1.26 % ID/g | Liver, percent injected dose/gram ([4]; 2 h post-injection): 0.77±0.06 % ID/g | Tumor, percent injected dose/gram ([4]; 2 h post-injection): 0.29±0.10 % ID/g | Kidneys, percent injected dose/gram ([4]; 4 h post-injection): 9.28±1.18 % ID/g | Liver, percent injected dose/gram ([4]; 4 h post-injection): 0.97±0.13 % ID/g | Tumor, percent injected dose/gram ([4]; 4 h post-injection): 0.15±0.05 % ID/g | Kidneys, percent injected dose/gram ([4]; 24 h post-injection): 4.43±1.67 % ID/g | Liver, percent injected dose/gram ([4]; 24 h post-injection): 0.59±0.16 % ID/g | Tumor, percent injected dose/gram ([4]; 24 h post-injection): 0.18±0.07 % ID/g | Kidneys, percent injected dose/gram ([5]; 0.5 h post-injection): 10.93±1.53 % ID/g | Tumor, percent injected dose/gram ([5]; 0.5 h post-injection): 1.27±0.40 % ID/g | Kidneys, percent injected dose/gram ([5]; 2 h post-injection): 6.41±0.34 % ID/g | Tumor, percent injected dose/gram ([5]; 2 h post-injection): 0.55±0.23 % ID/g | Kidneys, percent injected dose/gram ([5]; 4 h post-injection): 7.29±0.90 % ID/g | Tumor, percent injected dose/gram ([5]; 4 h post-injection): 0.38±0.16 % ID/g | Kidneys, percent injected dose/gram ([5]; 24 h post-injection): 2.72±0.64 % ID/g | Tumor, percent injected dose/gram ([5]; 24 h post-injection): 0.31±0.09 % ID/g
Molecule: CC(C)C[C@H](NC(=O)[C@@H](CCCCNC(=O)CCCCCNC(=O)CN1CCN(CC(=O)O)CCN(CC(=O)O)CCN(CC(=O)O)CC1)NC(=O)[C@H](Cc1ccc(O)cc1)NC(=O)[C@H](CO)NC(=O)[C@H](Cc1c[nH]c2ccccc12)NC(=O)[C@H](Cc1cnc[nH]1)NC(=O)[C@@H]1CCC(=O)N1)C(=O)N[C@@H](CCCNC(=N)N)C(=O)N1CCC[C@H]1C(=O)NCC(N)=O [^111In-DOTA-Ahx-(D-Lys^6-GnRH1), metal not drawn]

fold decrease of GnRH receptor binding affinity against DOTA-Ahx-(D-Lys^6-GnRH1) [6]: 293 fold
Molecule: DOTA-Ahx-(D-Lys^6-GnRH2) (peptide)

IC50 [7]: 36.1 nM
B1: DOTA-Ahx-(D-Lys^6-GnRH1) (peptide)
peptide: XHWSYKLRPG
modifications: pGlu at 1; D-Lys at 6 carrying DOTA-Ahx (aminohexanoic acid linker) on its epsilon amino group; C-terminal amide (Gly10-NH2)

fold decrease of GnRH receptor binding affinity against DOTA-Ahx-(D-Lys^6-GnRH1) [6]: 119 fold
B2: DOTA-Ahx-(L-Lys^6-GnRH3) (peptide)
peptide: XHWSYKLRPG
modifications: pGlu at 1; L-Lys at 6 carrying DOTA-Ahx on its epsilon amino group; C-terminal amide
